Laboratory results taken from PMC6270821, “ROS-Mediated Cytotoxic Effect of Copper(II) Hydrazone Complexes against Human Glioma Cells” (Molecules, 2014).

Assays:
[1] = test system: U87 (p53 wild-type glioblastoma multiforme) cells; assay: MTT cytotoxicity assay, U87 cells; assay type: cell-based, human; details: for IC50: MTT, 48 h treatment
Description: (§1) The in vitro cytotoxic effects of H2AcMe, H2BzMe and complexes 1 and 2 against wild type p53 U87 and mutant p53 T98 glioblastoma cells and against MRC-5 fibroblasts cells were tested using cisplatin as a positive control. To determine the IC50 (concentration that inhibits 50% of cell survival) values the cytotoxic effects were quantified using the 3-(4,5-dimethyl-2-thioazolyl)-2,5-diphenyl tetrazolium bromide (MTT) colorimetric assay. All tested compounds were cytotoxic against both glioma cell lines in a dose-dependent way. The IC50 values (see Table 1) were found in the micromolar range. Despite their cytotoxic activity, all compounds were less toxic to fibroblasts cells than cisplatin. CuCl2 evoked only mild cytotoxicity in all cell lineages with IC50 higher than 100 µM.
(§2) U87 (p53 wild-type glioblastoma multiforme) and T98 (p53 mutant glioblastoma multiforme) malignant human tumor cells and MRC5 (Human Fetal Lung Fibroblast) cells were obtained from the American Type Culture Collection (ATCC, Manassas, VA, USA). Cell lines were grown as monolayer in Dulbecco’s Modified Eagle’s Medium (DMEM, Gibco, Rockville, MD, USA), supplemented with 10% fetal bovine serum (Cultilab, Campinas, São Paulo, Brazil) and antibiotics (50 U/mL penicillin/50 […] streptomycin), in a humidified atmosphere air/CO2 (95%/5%) at 37 °C. Cells 80% confluents were used in all experiments. For all experiments, cells were seeded in 96-well plates, at a density of 1000 cells/well. After 24 h incubation cells were treated.
(§3) To determine the IC50 values the cytotoxic effects were quantified using the 3-(4,5-dimethyl-2-thioazolyl)-2,5-diphenyltetrazolium bromide (MTT) colorimetric assay. Briefly, cells were treated with increasing concentrations (10^−12, 10^−11, 10^−10, 10^−9, 10^−8, 10^−7, 10^−6, 10^−5, 10^−4 mol·L^−1) of either cisplatin (positive control) or test compounds (H2AcMe, H2BzMe, 1 and 2). The compounds were previously dissolved in dimethyl sulfoxide (DMSO) and the final concentrations were adjusted in DMEM in such manner that the final DMSO concentration was lower than 0.5%. Following 48 h treatment, MTT reagent was added to each well. Following another 4 h of incubation at 37 °C, DMSO was added to each well to dissolve formazan precipitate and absorbance was measured at 570 nm. Tests using DMSO (0.5% in DMEM) as negative control were carried out in parallel. All tests were performed in quadruplicates with full agreement between the results. Statistical analysis was carried out by the unpaired, one-tailed Student’s t testing using a p value of 0.05. A value of p < 0.05 was considered significant.

[2] = test system: T98 (p53 mutant glioblastoma multiforme) cells; assay: MTT cytotoxicity assay, T98 cells; assay type: cell-based, human; details: for IC50: MTT, 48 h treatment; for selectivity index (SI = IC50MRC5/IC50tumor cell), T98: T98 vs MRC5
Description: as §1, §2, §3

[3] = test system: MRC5 (Human Fetal Lung Fibroblast) cells; assay: MTT cytotoxicity assay, MRC5 fibroblasts; assay type: cell-based
Description: as §1, §2, §3

U87 cells = assay: ROS generation, DCFH-DA assay, U87 cells; assay type: cell-based, human; details: 1 × 10^−5 mol/L, 24 h
Excerpt: (§4) To examine the effects of H2AcMe, H2BzMe and their complexes 1 and 2 on the generation of free radicals (reactive oxygen species, ROS), we used the 2',7'-dichlorodihydrofluorescein diacetate (DCFH-DA) assay.
(§5) ROS accumulation was detected using dichlorodihydrofluorescein diacetate (DCFH-DA, Sigma). DCFH-DA is a non-fluorescent compound, that when it is taken up by passive diffusion into the cells, is hydrolyzed by esterases to yield non-permeable DCFH. In the presence of ROS, DCFH is oxidized to the fluorescent DCF. Tumor cells were treated with the compounds for 24 h and were then incubated with DCFH-DA (1 × 10^−5 mol·L^−1) for 30 min at 37 °C. Following incubation, the cells were washed twice with PBS. Thereafter, the cells were observed under the fluorescent microscope Zeiss Axionplan coupled with a digital camera at excitation and emission wavelengths of 488 and 525 nm, respectively. Data were analyzed using ImageJ (ImageJ, National Institute of Health, Bethesda, MD, USA) and expressed as percentages of DCFDA fluorescence of the corresponding control.

MRC5 cells = assay: ROS generation, DCFH-DA assay, MRC5 cells; assay type: cell-based, human; details: 1 × 10^−5 mol/L, 24 h
Excerpt: as §4, §5

pUC 19 plasmid DNA = assay: Agarose gel electrophoresis of supercoiled plasmid DNA; parameters: species or system Escherichia coli; details: 100 µM, Tris-HCl pH 7.20, 37 °C, 24 h
Description: Studies of interactions between the compounds under study and supercoiled plasmid DNA by agarose gel electrophoresis were carried out. Thus, 136 ng of purified plasmid DNA-pUC 19 from Escherichia coli (Sigma-Aldrich Brasil, São Paulo, Brazil) were incubated with compounds 1, 2 and cisplatin at 100 µM in Tris-HCl buffer (NaCl 50 mM, Tris-HCl 5 mM, pH = 7.20). The mixture was incubated at 37 °C for 24 h. Thereafter, the reactions were quenched by adding 5 µL of the loading buffer solution (50 mM Tris, pH 7.20, 0.01% bromophenol blue, 50% glycerol, and 250 mM EDTA). The samples were analyzed by 1% agarose gel electrophoresis in 0.5 × TBE buffer for 1 h 40 min at […]. The gel was stained after electrophoresis in 0.5× TBE buffer with 2.5 µg·mL^−1 ethidium bromide for 15 min and visualized by UV light.

[4] = Homo sapiens, MRC5, 48 h treatment

Row | SMILES | IC50 ([1]; Homo sapiens, U-87 MG) [µM] | IC50 ([2]; Homo sapiens, T98, 48 h) [µM] | IC50 [2] [µM] | selectivity index (SI = IC50MRC5/IC50tumor cell), T98 [2] | IC50 [3, 4] [µM] | ROS levels in U87 cells compared with T98 cells (U87 cells) | ROS levels in MRC5 cells compared with glioma cells (MRC5 cells) | IC50 [1] [µM] | IC50 ([3]; 48 h treatment) [µM] | alteration in the electrophoretic mobility of pUC 19 plasmid DNA (pUC 19 plasmid DNA) | selectivity index (SI = IC50MRC5/IC50tumor cell), U87 ([1]; U87 vs MRC5)
1 | CC(=O)NN=C(c1ccccc1)c1ccccn1 [H2BzMe, 2-benzoylpyridine acetylhydrazone] | 52.3 ± 10 | 19.8 | 19.7 ± 1.06 | good selectivity index | 62.3 ± 7.76 | equally effective in both cell lineages | the same increasing in ROS levels in MRC5 and in both malignant cells | – | – | – | –
2 | [Cl][Cu][Cl] [CuCl2, reference compound] | – | – | > 100 | – | – | – | – | > 100 | > 100 | no alteration in the electrophoretic mobility | –
3 | N.N.[Cl][Pt][Cl] [Cisplatin, [cis(Diaminedichloro)platinum(II)], reference compound] | – | – | 5.31 ± 1.94 | 0.95 | – | – | – | 1.76 ± 0.22 | 5.05 ± 0.71 | strong modification | 2.87
4 | CC(=O)NN=C(C)c1ccccn1 [H2AcMe, 2-Acetylpyridine acetylhydrazone] | 67.6 ± 4.08 | 13.8 ± 4.89 | – | – | 19.8 ± 4.15 | higher levels of ROS in U87 cells | lower levels of ROS in MRC5 cells | – | – | – | –
